Experimental data published in ChEMBL document CHEMBL3507680, “University of Dundee, Gates Library screen for HepG2 cell viability”.

Assay: Human HepG2 cell viability assay in 384 well format
Assay type: toxicity, cell-based
Parameters: dose 125 nL, time 70.5 hour; concentration not given beside the values
Details: HepG2 cells, read-out: Inhibition

| Compound | cytotoxicity at 70.5 h |
| --- | --- |
| COc1ccccc1Oc1ncccc1CNC(=O)CN1CCCC1=O | -4.31% |
| OCc1ccc(-c2nccn2CCc2nc3c(s2)CCCC3)o1 | 9.89% |
| CCCc1nnc(N2CCC(N3CCCCCC3)CC2)o1 | -15.8% |
| CC(C)Oc1cc(N2CCCC(O)C2)nc(N)n1 (stereo not drawn) | 7.95% |
| O=C1NC2(CCN(CCc3ccccc3)CC2)CC1c1ccccc1 (stereo not drawn) | -8.33% |
| CCCc1nnc(N(C)CC2CCN(CC(C)C)CC2)o1 | -7.76% |
| COc1ccc(C(=O)NC2CC2)c(OC2CCN(C3CCC3)CC2)c1 | -3.47% |
| Cc1nccc(N[C@H]2CN(C(=O)C3(C#N)CCOCC3)C[C@@H]2C(C)C)n1 | 12% |
| COc1ccc(CCC2CCCN(CC(=O)O)C2)cc1 (stereo not drawn) | -6.84% |
| CC1CN(CC(=O)NCCc2ccncc2)Cc2ccccc2O1 (stereo not drawn) | -7.7% |
| CC(=O)N1C[C@@H]2CC[C@H](C1)N(S(=O)(=O)c1cc(F)ccc1C)C2 | -10.6% |
| CC[C@@]1(O)CCN(C(=O)CCNC(=O)c2ccc(F)cc2)C[C@H]1O | -5.99% |
| Cc1ccc2[nH]c(CN(C)Cc3ccccc3C(=O)O)nc2c1 | -7.29% |
| Nc1nc(NCCc2[nH]nc3c2CCCC3)cc(N2CCOCC2)n1 | -6.18% |
| CC(C)[C@@H]1CN(c2ccc(C(F)(F)F)cn2)C[C@H]1NS(C)(=O)=O | 21.5% |
| CCN1CCC(N2C[C@H]3OC(=O)N(CCc4cccc(Cl)c4)[C@H]3C2)CC1 | -0.155% |
| c1cc(-c2cncnc2)cc(-c2ccn(CC3CCNC3)n2)c1 (stereo not drawn) | -15.7% |
| CC/C(C)=C/CCN1CCN(C)C2(CCNC(=O)CC2)C1 (stereo not drawn) | -6.34% |
| c1ccc(-c2cc(CN3C[C@H]4CC[C@H]3C4)on2)cc1 | -4.67% |
| CSc1ccc(-c2nc(CN3CCCC(CNC(C)=O)C3)c(C)o2)cc1 (stereo not drawn) | -3.75% |
| Cc1ccn2c(F)c(C(=O)N3CCC4(CCCN(C)C4=O)C3)nc2c1 (stereo not drawn) | -8.44% |
| CCOc1ccc(CCCC(=O)N2CCC(C(=O)NC)C2)cc1C (stereo not drawn) | -8.84% |
| Cc1cc(C)cc(CN2CCN(C(=O)COCC3CCCO3)CC2=O)c1 (stereo not drawn) | -5.03% |
| Cn1nnnc1SCCNC(=O)C1CCN(C(=O)C2CC2)CC1 | 24.5% |
| CC(NC(=O)c1cn(CCC2CCCCC2)nn1)c1cnn(C)c1 (stereo not drawn) | 20.4% |
| COc1cc(Cc2nc3c([nH]2)CC(C)(C)CNC3=O)cc(OC)c1 | 8.47% |

| Compound | cytotoxicity at 70.5 h |
| --- | --- |
| CC(C(=O)N1CCn2cncc2C1)N1C[C@@H](C)O[C@@H](C)C1 (stereo partly drawn) | 0.983% |
| Cc1cc(C(=O)NCc2cccnc2N2CCCC(O)C2)[nH]n1 (stereo not drawn) | -16.1% |
| O=C(CSc1ccccc1)N1C[C@H]2CC[C@@H]1CN(Cc1ccncc1)C2 | -4.9% |
| CCSc1ncc(CN(Cc2cnn(C)c2)CC(C)C)cn1 | -4.66% |
| Cc1cc(C(F)(F)F)cc(N2C[C@@H](CN(C)CCO)[C@@H](CO)C2)n1 | 2.18% |
| COC(=O)c1cc(C)nc(N2CCN(Cc3ccn(C(C)C)c3)CC2)n1 | -18.7% |
| Cc1ocnc1C(=O)N1CCN(CCOc2ccccc2)CC1 | -10.4% |
| Cc1ccccc1[C@@H]1CN(Cc2nc3ncccn3n2)C[C@H]1C(=O)O | 3.89% |
| CN(C)S(=O)(=O)N1C[C@@H]2CC[C@H](C1)N(Cc1ccc(F)c(F)c1)C2 | 4.72% |
| CCN(Cc1nccn1C)C(=O)c1ccc(NCC(C)C)nc1 | -6.64% |
| CC(C)c1nnc2sc(CC3CN(C(C)C)CCO3)nn12 (stereo not drawn) | -7.69% |
| COc1ccc(F)cc1CN1CCCn2nc(CNS(C)(=O)=O)cc2C1 | -5.04% |
| Cc1noc(C)c1CNC(=O)c1cn(CCC2CCCCN2)nn1 (stereo not drawn) | -0.767% |
| COC(=O)CNC(=O)C1(N(C)Cc2ccccc2)Cc2ccccc2C1 | -8.63% |
| COc1cccc(CN2CCC(O)(c3ccc(C)cn3)CC2)c1OC | 4.46% |
| COc1cc(F)ccc1-c1cnc(N)cn1 | -13.6% |
| CCn1c(CN(C)C)nnc1C1CCN(Cc2ccncc2)CC1 | -6.3% |
| O=C(NCCc1cccs1)C1(N2CCCCC2)Cc2ccccc2C1 | -7.46% |
| Nc1nc2c(c(NCC(c3cccnc3)N3CCOCC3)n1)CCNC2 (stereo not drawn) | -10.5% |
| CCn1nc(C)c(CN2CCC(c3ccc(C(=O)O)cc3)C2)c1C (stereo not drawn) | -2.74% |
| Cc1c(CNCC(C)Oc2cccnc2)c2ccccc2n1CC(N)=O (stereo not drawn) | 2.14% |
| Cc1nc(Cn2c(=O)cnc3ccccc32)n(C)n1 | -24.2% |
| Cn1c(Cn2ccnc2)nnc1C1CCN(C(=O)c2ccncc2)CC1 | -5.75% |
| Cc1nc(CCN)cc(N2CCC(O)(c3ccccc3)C2)n1 (stereo not drawn) | -4.16% |
| CC(C)=CCCN1CCN(C)C2(CCC(=O)N(C)CC2)C1 (stereo not drawn) | -6.95% |
| Cc1ccc(C)c(CN2CCCn3nc(CNS(C)(=O)=O)cc3C2)c1 | 15.4% |

| Compound | cytotoxicity at 70.5 h |
| --- | --- |
| CCN1CC(C(=O)NCc2cccc(SC)c2)CC1=O (stereo not drawn) | 18% |
| CCCn1cc(NC(=O)c2cccc(CN3CC=CC3)c2)nn1 | 45.4% |
| CN1C(=O)C2(CCCN(C(=O)c3cccnc3O)C2)c2ccccc21 (stereo not drawn) | 21% |
| CC(C)c1noc(Cn2ncc3ccccc3c2=O)n1 | -7.17% |
| Cc1ccc(CN2CCN(C(=O)CCc3nc(Cl)n[nH]3)CC2=O)cc1 | -14.2% |
| CC(=O)N[C@@H]1C[C@H](Cc2ccccc2)O[C@H](c2ccc(C(=O)O)cc2)C1 | -6.19% |
| O=C(N[C@@H]1CCNC[C@H]1O)c1ccc(F)c(F)c1 | -5.14% |
| CCc1ccc2nc(C)cc(C(=O)NCc3csc(N(C)C)n3)c2c1 | 16.3% |
| C=C(C)COc1ccccc1CNCCc1cc(O)nc(C)n1 | -2.32% |
| Cc1nc(CC(=O)N2CCCC(N(C)Cc3ccccc3)C2)cs1 (stereo not drawn) | 1.48% |
| COc1ccc(Oc2ncccc2C(N)=O)cc1CN1CCCC1 | -7.33% |
| CC[C@@]1(O)CCN(c2ncc(Cl)cc2C(F)(F)F)C[C@H]1O | 20.8% |
| O=C1O[C@@H]2CN(C3CCOCC3)C[C@@H]2N1CCc1cccc(Cl)c1 | -1.7% |
| CCCN1CCC(CC(=O)NCc2cc(C)nn2C)CC1 | -7.34% |
| CC1(C)CNC(=O)c2nc(C3CCCN(S(C)(=O)=O)C3)[nH]c2C1 (stereo not drawn) | -6.33% |
| COCCC1(C(=O)O)CCCN(c2cc(C)c3ccccc3n2)C1 (stereo not drawn) | -8.76% |
| Cc1ccccc1[C@@H]1CN(Cc2c(C)noc2C)C[C@H]1C(=O)O | 21.7% |
| COCCN(C)C[C@H]1C[C@H](CO)CN(C(=O)c2ccn(C)c(=O)c2)C1 | -9.68% |
| CCCc1cc(C(=O)N(C)Cc2cccc3cnccc23)n(C)n1 | -2.24% |
| Cc1nc(CN)cc(N2CCC(O)(c3ccc(Cl)cc3)CC2)n1 | -1.91% |
| Cc1noc(C)c1CN1C[C@@H](NC(=O)N(C)C)[C@H](C(C)C)C1 | -6.75% |
| COC(=O)[C@@H]1CCCN1C(=O)c1cn(CCCc2ccccc2)nn1 | -19.4% |
| COc1cccc(CN2CCN(C(=O)Nc3nc(C)ns3)CC2=O)c1 | -0.713% |
| Cc1nc(N(C)Cc2cccc(O)c2)nc2cc(S(C)(=O)=O)ccc12 | -7.8% |
| CC(C)c1cc(CN(C)C(=O)C(C)N2CCc3ccccc3C2)no1 (stereo not drawn) | 34.4% |
| CC(C)C1CN(c2nccc(N)n2)CCC(=O)N1Cc1ccc(F)cc1 (stereo not drawn) | -8.72% |
